Results on one molecule are retold here after paper PMC4099364, “Comparing Binding Modes of Analogous Fragments Using NMR in Fragment-Based Drug Design: Application to PRDX5” (PLoS ONE, 2014).

The test concerns the target T1, human peroxiredoxin 5 (PRDX5) (Homo sapiens, UniProt P30044).
T1 construct: 6xHis-tagged, pQE-30, E. coli M15, 15N-labelled for HSQC; reduced with DTT
T1 sequence (P30044 54-214): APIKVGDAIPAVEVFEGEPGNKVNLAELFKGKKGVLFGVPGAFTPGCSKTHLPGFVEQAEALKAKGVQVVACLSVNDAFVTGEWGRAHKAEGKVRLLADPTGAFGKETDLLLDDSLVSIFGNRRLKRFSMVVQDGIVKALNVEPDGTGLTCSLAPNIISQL
The experiment in a line: […]-HSQC NMR titration (combined CSP fit). It counts as binding.

The term Kd denotes the free concentration of one partner at which half of the binding sites on the other are occupied at equilibrium, for simple one-to-one binding.

`Oc1cccc(-c2ccccc2)c1O` [compound 5, 2,3 dihydroxy-biphenyl]: the Kd was found to be 390 ± 50 µM.
